Several values for one entry are separate records, joined by “and”; a condition that tells them apart may be missing. Identical values can stand only once.
Key:
SV2A WT and mutants [1] = biological target: T1, SV2A WT and mutants (Homo sapiens, UniProt Q7L0J3, C693A); assay: Relative binding of levetiracetam: 3H-UCB-J (10 nM) binding in presence of 10 µM levetiracetam (Fig. 2C); conditions: C693A; 10 µM levetiracetam; SV2AWT defined as 100%
T1 construct: expressed in transfected cells; host or cells: HEK293 (ATCC CRL-1573), crude membranes
Method: (§1) Data are shown as mean ± s.d.; n = 6 biological replicates. […] Data shown as mean ± s.d.; n = 6 biological replicates. D Superposition of SV2A-apo (gray) and SV2A–Lev (green), showing helix-to-loop transition and inward movement of TM1 in levetiracetam-bound state. […] Source data for (B, C) are provided as a Source data file.
(§2) Ligand binding studies were carried out using crude membranes prepared from HEK293 cells (ATCC, CRL-1573) overexpressing mVenus-SV2AWT or SV2AEM. Membranes were prepared either from transiently transfected cells or from baculovirus-infected cells as described previously. Cells were washed with DPBS (Ca^2+ and Mg^2+ free), followed by resuspending in cold SH buffer (10 mM HEPES-Tris pH 7.4, 320 mM sucrose) containing protease inhibitor cocktail (MedChemExpress) to a density of 10^7 cells/ml. This cell suspension was homogenized by passing through a bead homogenizer (Isobiotec) with 10-micron clearance bead on ice. The lysate was then centrifuged at 4000 × g for 5 min at 4 °C, and the supernatant was aliquoted, frozen in liquid nitrogen, and stored at −80 °C. The mVenus fluorescence estimated using fluorescence size-exclusion chromatography (FSEC) was used to normalize expression levels of mVenus-SV2A mutants studied as detailed previously. For all binding studies, membranes containing […] protein (estimated by BCA method) per reaction were used.

SV2A WT and mutants [2] = biological target: T2, SV2A WT and mutants (Homo sapiens, UniProt Q7L0J3, N690A); assay: as above; conditions: N690A
T2 construct: expressed in transfected cells; host or cells: HEK293 (ATCC CRL-1573), crude membranes
Method: as §1, §2

SV2A WT and mutants [3] = biological target: T3, SV2A WT and mutants (Homo sapiens, UniProt Q7L0J3); assay: as above; conditions: WT; 10 µM levetiracetam; SV2AWT defined as 100%
T3 construct: expressed in transfected cells; host or cells: HEK293 (ATCC CRL-1573), crude membranes
Method: as §1, §2

SV2AWT = biological target: T4, SV2AWT (Homo sapiens, UniProt Q7L0J3); assay: Competitive displacement of 10 nM 3H-UCB-J, SV2AWT membranes (Fig. 1A); assay type: binding; conditions: read-out: Binding of 3H-UCB-J (%), SV2A_WT
T4 construct: expressed in transfected cells; host or cells: HEK293 (ATCC CRL-1573), crude membranes
Method: as §2
(§3) To obtain dose-response curves of studied SV2A ligands, membranes diluted in 0.2 ml binding buffer (50 mM Tris-Cl, pH 7.4, and 2 mM MgCl2) were incubated with indicated concentrations of ligands for 30 min at 4 °C. […] The binding reaction was arrested by trapping membranes on Unifilter-GF/C 96-well filter plates (Revvity) pre-soaked with 0.1%(w/v) polyethyleneimine (PEI). Membranes were then washed four times with 0.2 ml of cold binding buffer, dried, and 40 µl of scintillation liquid was added to each well. Radioactivity was monitored in MicroBeta2 plate counter (Revvity). Estimates for IC50 were obtained from fitting the data to three-parameter dose-response curves using GraphPad Prism 10.

SV2AEM = biological target: T5, SV2AEM (Homo sapiens, UniProt Q7L0J3); assay: Competitive displacement of 10 nM 3H-UCB-J, SV2AEM membranes (Fig. 1A); assay type: binding
T5 construct: expressed in transfected cells; host or cells: HEK293 (ATCC CRL-1573), crude membranes (transient transfection or baculovirus)
Method: as §2, §3

[4] = system: SV2A WT, W300A, W666A, D670A; assay: Displacement of 10 nM 3H-UCB-J by levetiracetam, binding site mutations (Fig. 2B); set-up: species or system human; conditions: Fig. 2B
Method: as §2, with “Membranes” for “Ligand binding studies were carried out using crude membranes prepared from HEK293 cells (ATCC, CRL-1573) overexpressing mVenus-SV2AWT or SV2AEM. Membranes”
as §3

[5] = biological target: T6, SV2A WT, W300A, W666A, D670A (Homo sapiens, UniProt Q7L0J3); assay: as above; conditions: read-out: Binding of 3H-UCB-J (%), WT
T6 construct: expressed in transfected cells; host or cells: HEK293 (ATCC CRL-1573), crude membranes
Method: as §2, with “Membranes” for “Ligand binding studies were carried out using crude membranes prepared from HEK293 cells (ATCC, CRL-1573) overexpressing mVenus-SV2AWT or SV2AEM. Membranes”
as §3

T6 sequence (Q7L0J3 whole entry W300A/W666A/D670A): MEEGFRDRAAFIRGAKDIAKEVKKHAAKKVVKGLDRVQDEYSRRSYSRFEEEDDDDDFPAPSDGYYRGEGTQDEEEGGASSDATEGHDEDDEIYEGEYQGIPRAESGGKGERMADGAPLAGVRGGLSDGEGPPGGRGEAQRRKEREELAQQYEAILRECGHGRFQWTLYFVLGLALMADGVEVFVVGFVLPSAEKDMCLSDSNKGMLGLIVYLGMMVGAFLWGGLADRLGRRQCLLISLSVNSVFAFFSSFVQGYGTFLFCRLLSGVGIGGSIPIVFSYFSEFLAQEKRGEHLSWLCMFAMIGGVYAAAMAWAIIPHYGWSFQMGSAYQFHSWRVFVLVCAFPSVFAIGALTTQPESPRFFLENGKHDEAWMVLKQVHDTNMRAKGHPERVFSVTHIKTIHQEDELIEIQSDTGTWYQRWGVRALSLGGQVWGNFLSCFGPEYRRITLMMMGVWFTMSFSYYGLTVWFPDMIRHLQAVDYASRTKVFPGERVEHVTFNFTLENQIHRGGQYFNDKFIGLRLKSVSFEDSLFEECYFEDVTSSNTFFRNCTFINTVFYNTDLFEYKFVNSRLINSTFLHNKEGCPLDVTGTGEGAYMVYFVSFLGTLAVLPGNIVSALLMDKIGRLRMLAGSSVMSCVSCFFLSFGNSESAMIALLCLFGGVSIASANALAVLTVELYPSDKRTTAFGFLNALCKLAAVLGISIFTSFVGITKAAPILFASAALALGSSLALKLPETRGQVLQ
T3 sequence (Q7L0J3 whole entry, change not shown): as the sequence (Q7L0J3 whole entry W300A/W666A/D670A) above, with A300W, A666W, A670D counted along it
T4 sequence (Q7L0J3 whole entry): as the sequence (Q7L0J3 whole entry W300A/W666A/D670A) above, with A300W, A666W, A670D counted along it
T2 sequence (Q7L0J3 whole entry N690A): as the sequence (Q7L0J3 whole entry W300A/W666A/D670A) above, with A300W, A666W, A670D, N690A counted along it
T1 sequence (Q7L0J3 whole entry C693A): as the sequence (Q7L0J3 whole entry W300A/W666A/D670A) above, with A300W, A666W, A670D, C693A counted along it
T5 sequence (Q7L0J3 141-742): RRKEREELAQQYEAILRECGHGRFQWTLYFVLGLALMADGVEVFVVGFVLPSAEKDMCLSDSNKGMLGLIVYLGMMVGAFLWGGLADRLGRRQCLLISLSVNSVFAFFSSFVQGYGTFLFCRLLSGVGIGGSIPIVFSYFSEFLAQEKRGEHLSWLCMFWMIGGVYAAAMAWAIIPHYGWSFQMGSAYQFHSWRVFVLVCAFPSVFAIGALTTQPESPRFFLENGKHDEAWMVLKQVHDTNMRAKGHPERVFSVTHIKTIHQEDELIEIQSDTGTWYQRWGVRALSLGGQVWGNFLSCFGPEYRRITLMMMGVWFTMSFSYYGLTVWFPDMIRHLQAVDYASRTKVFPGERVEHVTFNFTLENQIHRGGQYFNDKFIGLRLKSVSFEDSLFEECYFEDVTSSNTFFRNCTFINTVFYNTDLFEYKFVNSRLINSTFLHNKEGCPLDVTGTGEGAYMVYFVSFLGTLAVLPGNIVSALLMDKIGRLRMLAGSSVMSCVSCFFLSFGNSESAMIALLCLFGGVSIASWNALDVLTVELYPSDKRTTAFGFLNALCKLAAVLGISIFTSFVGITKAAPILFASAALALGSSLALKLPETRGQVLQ

CC[C@@H](C(N)=O)N1CCCC1=O [levetiracetam]
Levetiracetam Binding (%) (SV2A WT and mutants [1]): 135.59% and 126.18% and 71.93% and 77.61% and 128.23% and 117.60% | effect of mutation on levetiracetam binding (SV2A WT and mutants [2]): enhances levetiracetam binding | Levetiracetam Binding (%) (SV2A WT and mutants [2]; 10 µM levetiracetam, SV2AWT defined as 100%): 143.32% and 133.74% and 159.43% and 149.90% and 155.36% and 156.86% | Levetiracetam Binding (%) (SV2A WT and mutants [3]): 102.09% and 117.44% and 93.09% and 74.67% and 113.64% and 99.03% | remaining activity at 300 µM (SV2AWT; Log [Levetiracetam] (M) -3.523): 10.8% | remaining activity at 100 µM (SV2AWT; Log [Levetiracetam] (M) -4.000): 22.8% | remaining activity at 10 µM (SV2AWT; Log [Levetiracetam] (M) -5.000): 66.1% | remaining activity at 1 µM (SV2AWT; Log [Levetiracetam] (M) -6.000): 95% | remaining activity at 0.1 µM (SV2AWT; Log [Levetiracetam] (M) -7.000): 95.2% | remaining activity at 0.01 µM (SV2AWT; Log [Levetiracetam] (M) -8.000): 92.5% | IC50 (SV2AEM): 9.5 µM | binding response of SV2AEM vs wild-type SV2A (SV2AEM; competition with 3H-UCB-J): comparable to those of wild-type SV2A | remaining activity at 10 µM (SV2AEM; read-out: Binding of 3H-UCB-J (%), SV2A_EM, Log [Levetiracetam] (M) -5.000): 53.7% | reduction of levetiracetam binding by mutating Trp300, Trp666, Asp670 [4]: ~1000 fold | 3H-UCB-J binding at 1000 µM ([5]; Log [Levetiracetam] (M) -3.000): 6.22% | 3H-UCB-J binding at 100 µM ([5]; Log [Levetiracetam] (M) -4.000): 31.9% | 3H-UCB-J binding at 3 µM ([5]; Log [Levetiracetam] (M) -5.523): 73.5% | 3H-UCB-J binding at 1 µM ([5]; Log [Levetiracetam] (M) -6.000): 84.4%
